Series [1] relates to gene expression (stress response, apoptosis, cell cycle genes). In words: Microarray differential gene expression (Affymetrix Human Gene 2.1 ST). The following applies: vs. Control, 6 h after treatment. In kind it is cell-based. The protocol:
(§1) DNA damage was measured using EpiQuik 8-OHdG DNA Damage Quantification Direct Kit (colorimetric) (Fischer, Waltham, MA, USA, P600396); The mitochondrial cytochrome C release was evaluated using the “Millipore’s FlowCellect Cytochrome C Kit (Millipore, FCCH100110)”. Lactate dehydrogenase activity release was measured in the culture medium using Cytotoxicity Detection Kit (Roche Diagnostic, Barcelona, Spain, 11 644 793 001). Protein synthesis was determined using Click-iT Plus O-propargyl-puromycin (OPP) Protein Synthesis Assay Kit (Invitrogen™, Waltham, MA, USA). Measurement of GSH/GSSG was determined with GSH/GSSG-Glo Assay (Promega, V6611). Measurements of OCR and ECAR with Seahorse XFp (Agilent Technologies) were determined using the XFp Cell Mito Stress Test Kit (103010-100) and XFp Glycolysis Stress Test Kit (103017-100). ATP measurement was determined with Cell Titer-Glo Luminescent Cell Viability Assay (Promega, Madison, WI, USA, G7570). Determination of DNA damage using phosphorylated H2AX measurement were performed as previously described. Cardiolipin oxidation using the fluorophore Nonyl Acridine Orange (NAO, Thermo Scientific, A1372) was performed as described. Cell viability was determined by Hoechst inclusion and Propidium iodide (PI) exclusion by standard protocols. TEM analysis were performed as described. Cell cycle analysis by flow cytometry and microarrays analysis were performed as described. Arrays data have been deposited in the ArrayExpress database at EMBL-EBI (www.ebi.ac.uk/arrayexpress) under accession number E-MTAB-860 (10 November 2022)
Studies of the effect of 1[C,NH] on gene expression were performed and assessed 6 h after treatment, in a middle phase, when most cells were still alive (see S.I. Movie S2) but already with characteristic morphological features of apoptosis (Movie S1). Gene expression profiles of cells was determined by Affymetrix Human Gene 2.1 ST Array Plate in three independent experiments. In order to confirm the microarray data, we selected some genes involved in several key pathways: stress response, apoptosis and cell cycle to validate the changes in the expression by RT-qPCR. Results indicated a good correlation between microarray analysis and RT-qPCR. (Table S11). […] Note that not all genes are annotated with these databases. However, the negative regulation of metabolic process and negative regulation of macromolecule metabolic process are highly represented, and ~38% (84) of all genes could be classified in this way. […] The effect of 1[C,NH] on cell cycle progression was further assessed by flow cytometry. […] In summary, mRNA expression analysis is in good agreement with the elevation of ROS, oxidative stress response, cell cycle arrest and induction of apoptosis.

The subject of series [2] is A549 cells. Nature of the series: Cell cycle analysis by flow cytometry. In kind it is cell-based, human. As to conditions: 8 µM, 24 h, PI staining. As for the experimental part:
DNA damage was measured using EpiQuik 8-OHdG DNA Damage Quantification Direct Kit (colorimetric) (Fischer, Waltham, MA, USA, P600396); The mitochondrial cytochrome C release was evaluated using the “Millipore’s FlowCellect Cytochrome C Kit (Millipore, FCCH100110)”. Lactate dehydrogenase activity release was measured in the culture medium using Cytotoxicity Detection Kit (Roche Diagnostic, Barcelona, Spain, 11 644 793 001). Protein synthesis was determined using Click-iT Plus O-propargyl-puromycin (OPP) Protein Synthesis Assay Kit (Invitrogen™, Waltham, MA, USA). Measurement of GSH/GSSG was determined with GSH/GSSG-Glo Assay (Promega, V6611). Measurements of OCR and ECAR with Seahorse XFp (Agilent Technologies) were determined using the XFp Cell Mito Stress Test Kit (103010-100) and XFp Glycolysis Stress Test Kit (103017-100). ATP measurement was determined with Cell Titer-Glo Luminescent Cell Viability Assay (Promega, Madison, WI, USA, G7570). Determination of DNA damage using phosphorylated H2AX measurement were performed as previously described. Cardiolipin oxidation using the fluorophore Nonyl Acridine Orange (NAO, Thermo Scientific, A1372) was performed as described. Cell viability was determined by Hoechst inclusion and Propidium iodide (PI) exclusion by standard protocols. TEM analysis were performed as described. […]
For orientation: In flow cytometry, cells or beads pass a laser one at a time.

In series [3] the test system is A549-gal cells. In words: Seahorse XFp Glycolysis Stress Test (ECAR). In kind it is cell-based, human. As to conditions: 16 µM. The protocol: Cell culture. Epithelial ovarian carcinoma cells (A2780) that acquired resistance to cisplatin epithelial ovarian carcinoma cells (A2780cis), colon adenocarcinoma cells (SW480) and epithelial lung adenocarcinoma cells (A549) were provided by Sigma Aldrich. A549 and SW480 cells were grown in Dulbecco′s Modified Eagle′s Medium (DMEM), supplemented with 10% Fetal Bovine Serum (FBS) and 1% penicillin, streptomycin and 1% glutamine for A549 and 1% amphotericin B for SW480. The A2780 and A2780cis were grown in RPMI 1640 supplemented with 10% Fetal Bovine Serum (FBS), 1% glutamine and 1% penicillin, streptomycin and amphotericin B. All cells were incubated in a humidified incubator at 37 °C under a 5% CO2 atmosphere and grown in 100 mm culture dishes to approximately 70–80% confluence. For subculturing, cells were detached with Trypsin-EDTA (Sigma). A549-gal were derived from A549 cultured in glucose-free medium supplemented with 10 mM galactose (Sigma) for at least 10 passes.
as §1

Series [4] has as its system A549 cells. Nature of the series: MTT viability with NAC pre-incubation. In kind it is cell-based, human. As to conditions: NAC 10 mM 2 h pre-incubation, then 24 h. The protocol:
Cytotoxicity. MTT Assay and IC50 estimation. The cytotoxicity of 1[C,NH-Cl], 2[C,NMe-Cl], 3[N,NH-Cl]Cl, 4[N,NMe-Cl]Cl, 5[CNH2,NH-Cl]Cl, 6[CNH2,S-Cl]Cl, 7[CO,NH-Cl] and 8[CO,S-Cl] in A2780, A2780cis, SW480 and A549 carcinoma cells was evaluated by the MTT colorimetric assay. Cells were seeded in 96-well plates at 5000 cells per well and incubated at 37 °C, 5% CO2. After 24 h, the medium was removed and replaced with fresh medium with different concentrations of the compounds under study, and they were incubated for 48 h. Final DMSO concentration was kept below 0.7% in wells. For a negative control, one sequence of cells was left untreated and for vehicle control, cells treated with DMSO were included. For cell viability experiments preincubating with NAC (N-Acetyl-L-Cysteine), the cells were pre-treated with NAC, 10 mM for 2 h before the incubation with complex 1[C,NH-Cl] for 24 h. Then, the medium was removed from the wells, and 100 µL MTT (5 mg/mL) was added. […] Cell growth inhibition was detected by measuring the absorbance of each well at 595 nm using a BioTek Cytation5 microplate reader. […] The percentage of survival cells was calculated using absorbance measurements compared with control and the IC50 estimation using Graph Pad Prism version 6.01.

Series [5] deals with SW480 cells. Nature of the series: Ir cellular uptake by ICP-MS. In kind it is cell-based, human. As to conditions: 2 µM, 24 h. The protocol:
Quantification of Ir cellular uptake by ICP-MS (Inductively coupled plasma-mass spectrometry). Metal accumulation studies were conducted on the SW480 cell line. In these experiments, 3 × 10^5 cells were seeded in 12.5 cm^2 tissue culture flasks in drug-free medium and incubated for 24h at 37 °C in a 5% CO2 humidified atmosphere. Then, cells were treated with 2 µM of the iridium complexes. After 24 h of exposure, cells were washed twice with PBS and harvested. The pellets were resuspended in PBS, and 10 µL were used to count cells. Then, each resuspended pellet was digested in 65% HNO3 for 24 h. Finally, solutions were analyzed in a 7700 ICP-MS (Agilent Technologies, Palo Alto, CA, USA). Data is reported as the mean the standard deviation (n = 3).

SMILES strings stand for the structures.

`Cc1c(C)c(C)[c-](C)c1C.[Cl][Ir]1[c]2ccccc2-c2[nH]c3ccccc3[n+]21` [1[C,NH], [(η^5-Cp*)IrCl(κ^2-N,C-pbim)]]: in series [1], the “ATF3 Microarray (Fold Change (linear))” value came out at 37, the “ATP1B2 Microarray (Fold Change (linear))” value was 34.8, the “BBC3 Microarray (Fold Change (linear))” value stood at 3.3 and the “BCL2L11 Microarray (Fold Change (linear))” value worked out at 5.1. Moreover, in series [1], the “CHAC1 Microarray (Fold Change (linear))” value was found to be 3, the “DDIT3 Microarray (Fold Change (linear))” value was 23, the “EGR1 Microarray (Fold Change (linear))” value is given as above 100 and the “FOSB Microarray (Fold Change (linear))” value was above 100. Also, in series [1], the “HIST1H1B Microarray (Fold Change (linear))” value is on record as -6.6, the “MIR9-1 Microarray (Fold Change (linear))” value was determined as 26.8, the “PMAIP1 Microarray (Fold Change (linear))” value is reported as 7.1 and the “PPP1R15A Microarray (Fold Change (linear))” value was determined as 11. Besides, in series [1], the “SKP2 Microarray (Fold Change (linear))” value is recorded as -4.7. Further, in series [2], the Cell cycle distribution entry is “percentage of cells in G0/G1 phase increased and cells in G2/M phase decreased”. In addition, in series [3], the “Acute Response, ECAR, Mean” value is recorded as 4.17 mpH/min; the “Glycolysis, ECAR, Mean” value is reported as 44.81 mpH/min; the “Glycolytic Capacity, ECAR, Mean” value is 43.97 mpH/min; the “Glycolytic Reserve %, Mean” value came to 98.26%. In addition, in series [3], the “Glycolytic Reserve, ECAR, Mean” value was found to be 2.48 mpH/min and the “Non-Glycolytic Acidification, ECAR, Mean” value was 9.64 mpH/min. Further, in series [4], the “Rescue of cytotoxicity by NAC” value is reported as “partial rescue”.

On to `Cc1c(C)c(C)[c-](C)c1C.[Cl][Ir]1[O]c2ccccc2-c2sc3ccccc3[n+]21` [8[CO,S], [(η^5-Cp*)IrCl(κ^2-O,N-hpbtz)]], for which, in series [5], the “Metal accumulation in SW480 cells” value is recorded as “highest accumulation”.

These data come from PMC9818021, “Targets, Mechanisms and Cytotoxicity of Half-Sandwich Ir(III) Complexes Are Modulated by Structural Modifications on the Benzazole Ancillary Ligand” (Cancers, 2022).
